Target: T1, human ferroportin (Homo sapiens, UniProt Q9NP59)
T1 construct: expressed in transfected cells
T1 sequence (Q9NP59 1-571): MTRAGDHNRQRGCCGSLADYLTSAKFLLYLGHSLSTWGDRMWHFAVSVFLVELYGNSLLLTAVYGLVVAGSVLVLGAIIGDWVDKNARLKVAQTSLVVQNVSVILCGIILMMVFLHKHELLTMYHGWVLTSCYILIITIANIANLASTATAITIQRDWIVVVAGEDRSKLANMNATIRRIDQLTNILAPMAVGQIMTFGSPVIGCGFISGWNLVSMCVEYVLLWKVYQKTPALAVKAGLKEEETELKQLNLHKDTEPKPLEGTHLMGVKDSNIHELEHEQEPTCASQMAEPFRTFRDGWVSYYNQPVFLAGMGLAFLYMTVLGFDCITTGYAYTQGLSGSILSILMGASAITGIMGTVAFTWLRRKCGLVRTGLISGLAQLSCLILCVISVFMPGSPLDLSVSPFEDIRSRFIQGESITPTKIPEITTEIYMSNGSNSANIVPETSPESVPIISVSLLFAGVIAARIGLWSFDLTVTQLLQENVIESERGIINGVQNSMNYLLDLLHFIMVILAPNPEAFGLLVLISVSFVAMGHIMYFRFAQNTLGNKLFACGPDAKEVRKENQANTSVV
Experiment: Ferroportin internalization assay (inhibition of hepcidin-induced internalization of Fpn, MDCK-FPN-HaloTag cells)
Assay type: cell-based
Conditions: 100 nM hepcidin
Experimental: The hepcidin-antagonistic action of the ethanediamine compounds of the present invention was determined by means of the “ferroportin internalization assay” described in the following.
Organic compounds of low molecular weight which counteract the biological actions of hepcidin on its receptor, the iron exporter ferroportin (Fpn), were identified on the basis of their ability to inhibit hepcidin-induced internalization of Fpn in living cells. For this purpose, a stable cell line (Madin-Darby canine kidney, MDCK) was produced which constitutively expresses human ferroportin fused recombinantly at its C terminus with a fluorescent reporter protein (HaloTag®, Promega Corp.). The internalization of Fpn was monitored by labelling these cells with fluorescent ligands (HaloTag®-TMR, tetramethylrhodamine) which join covalently on to the HaloTag reporter gene fused with the Fpn. […] Optimized image analysis algorithms were used to ascertain the cell surface and to quantify the corresponding membrane fluorescence associated with the Fpn-HaloTag fusion protein. This assay allows a quantitative image-based analysis in order to quickly evaluate compounds which can block hepcidin-induced internalization of Fpn. This assay is a direct in vitro pendant of the in vivo action mechanism proposed for medicament candidates and is therefore suitable as an initial assay with a high throughput for identifying compounds which counteract the action of hepcidin on its receptor ferroportin.
• 7,500 cells per well (MDCK-FPN-HaloTag) were transinoculated in 50 μl of DMEM medium (Dulbeccos Modified Eagle Medium with 10% foetal bovine serum (FBS), which contained 1% penicillin, 1% streptomycin and 450 μg/ml of G-418) in microtitre plates with 384 wells (384 Cell carrier plates, Perkin Elmer, cat. no. 6007430), followed by incubation overnight at 37° C./5% CO2. • The volume of the medium was reduced to 10 μl, and 10 μl of 5 μM HaloTag-TMR ligands (Promega, cat. no. G 8251) were added in DMEM medium in order to stain the Fpn-HaloTag fusion protein. • 15 min incubation at 37° C./5% CO2 • The HaloTag-TMR ligand was removed and the cells were washed with fresh DMEM medium and the volume was reduced to 20 μl of DMEM medium. • 3 μl per well of a solution of the test compound (dissolved DMSO) were added ([…]). • 7 μl of […] hepcidin (Peptides International, cat. no. PLP-4392-s, 100 μM stock solution diluted in water in DMEM medium) were added per well up to a final hepcidin concentration of 100 nM. • The cells were incubated overnight at 37° C./5% CO2. • The cells were fixed by adding paraformaldehyde (PFA, Electron Microscopy Sciences, cat. no. 15710-S) directly to the cells up to a final concentration of 4%, followed by incubation at room temperature for 15-20 minutes. • The PFA solution was removed and the cells were washed with PBS (phosphate-buffered saline solution), in each case 30 μl remaining in the plate. • 20 μl of Draq5 (Biostatus, cat. no. DR 51000) were added up to a final concentration of 2.5 μM in order to stain the cell nuclei, and the plates were sealed with a foil plate seal. • The plates were analysed with the Opera Plate Imager (Opera Confocal Plate Imager, Perkin Elmer) with 7 images per well; 440 ms exposure time per image, […] focal point height.

| Structure (SMILES) | I [%] (median inhibition [%] at 10 μm substance conc.) |
| --- | --- |
| Fc1ccc(C(CN2CCN(c3cnccn3)CC2)NCc2ccccn2)cc1 (stereo not drawn) [Example 1, [1-(4-Fluoro-phenyl)-2-(2,3,5,6-tetrahydro-[1,2′]bipyrazinyl-4-yl)-ethyl]-pyridin-2-ylmethyl-amine] | >50% |
| O=C(C1CCCO1)N1CCN(CC(NCc2ccccn2)c2ccccc2)CC1 (stereo not drawn) [Example 3, (4-{2-Phenyl-2-[(pyridin-2-ylmethyl)-amino]-ethyl}-piperazin-1-yl)-(tetrahydro-furan-2-yl)-methanone] | <50% |
| COCCN1CCN(C(CN2CCC(N3CCCCC3)CC2)c2ccccc2)CC1 (stereo not drawn) [Example 4] | >50% |
| O=C(C1CCCO1)N1CCN(CC(NCc2ccccn2)c2ccc(F)cc2)CC1 (stereo not drawn) [Example 2, (4-{2-(4-Fluoro-phenyl)-2-[(pyridin-2-ylmethyl)-amino]-ethyl}-piperazin-1-yl)-(tetrahydro-furan-2-yl)-methanone] | <50% |

Now from value to compound:

| I [%] (median inhibition [%] at 10 μm substance conc.) | Structure (SMILES) |
| --- | --- |
| <50% | COc1ccc(CNC(CN2CCC(N3CCCCC3)CC2)c2ccccc2)cc1 (stereo not drawn) [Example 6] |
| <50% | c1ccc(C(CN2CCC(N3CCCCC3)CC2)NCCN2CCOCC2)cc1 (stereo not drawn) [Example 5] |

Source: patent US20120214798A1, “Novel Ethanediamone Hepcidine Antagonists” (VIFOR (INTERNATIONAL) AG, priority 2009, published 2012)
